Tests used:
[1] = tested on: Arabidopsis root segments; conditions: A. tumefaciens A348 or A281 (no TZS), 1.4 or 14 μM trans-zeatin
Protocol: Neither of these strains harbors TZS. Trans-zeatin concentrations representing the range secreted by nopaline-type A. tumefaciens strains were used.
A. tumefaciens was cultured in Yeast Extract-Peptone medium (Lichtenstein et al., 1986) containing the appropriate antibiotics. Root transformation assays were carried out as previously described by Nam et al. with minor modifications (Tenea et al., 2009). MS basal medium lacking phytohormones was used to select for tumors. GUS activity assays were carried out after infection of root segments with A. tumefaciens At849 (Narasimhulu et al., 1996) for 4-6 d, using X-gluc (Jefferson et al., 1987).
(§1) Roots were infected with bacteria at 10^6 cfu/mL (Col-0) or 10^8 cfu/mL (Bl-1). Following infection, root segments were either transferred to MS basal medium containing 100 μg/mL Timentin and incubated for 4-5 weeks before recording the percentage of root segments developing tumors, or used for RNA isolation.

[2] = tested on: Arabidopsis root segments; conditions: Col-0 and Bl-1 root segments, 24 h, 1.4 μM trans-zeatin
Protocol: Root segments of Arabidopsis Bl-1 and MTF-RNAi lines were incubated with A. tumefaciens A208 containing pJZ383 (Ptac::GFP). Root segments were co-cultivated with 10^5 cfu/mL (ecotype Columbia) or 10^8 cfu/mL (ecotype Bl-1) for 24 h in B5 minimal medium. Root segments were rinsed and visualized by epifluorescence microscopy.
Agrobacterium attachment assays were conducted as described herein. Col-0 and Bl-1 root segments were co-cultivated with A281 at 10^6 or 10^8 cfu/mL, respectively, for 24 h in the presence or absence of 1.4 μM trans-zeatin.

MTF = conditions: Col-0 and Bl-1 root segments treated for two days with trans-zeatin
Protocol: Real-time RT-PCR was carried out using total RNA isolated in triplicate from roots of plants grown in liquid B5 medium. PCR was performed in triplicate on an ABI Prism 7500 Sequence Detection System (Applied Biosystems, Foster City, Calif.). Expression levels were calculated by the relative standard curve method (Applied Biosystems) for all transcripts except ORA59, where the comparative cycle threshold method (Applied Biosystems) was used, and normalized to Actin2 transcript levels.
as §1

Arabidopsis roots = conditions: kinetin applied during infection; Agrobacterium tzs mutant; Hwang et al., 2010; cited from earlier work

Structure (SMILES)	increase in transformation efficiency ([1]; Col-0 roots, percentage of root segments developing tumors)	increase in susceptibility ([1]; ecotype Bl-1 roots)	attachment of A. tumefaciens A281 [2]	decrease of MTF transcript levels (MTF)	susceptibility of roots to transformation (Arabidopsis roots)
C/C(=C\CNc1ncnc2nc[nH]c12)CO [trans-zeatin]	4-8 fold	2-3 fold	increased attachment	30-60%	
c1coc(CNc2ncnc3[nH]cnc23)c1 [kinetin]					increased the susceptibility

Source: US10150969B2, “Methods and compositions to regulate plant transformation susceptibility” (priority 2010, dated 2018)
